Reference: patent publication US11607432B2, “Probiotic compositions containing clostridiales for inhibiting inflammation” (Evelo Biosciences, Inc., priority 2014, dated 2023)
“Also recorded” adds a separate entry of the source. Read-outs that look alike come from different tables or passages of the source.

Assays:
[1] = cited from earlier work
[2] = test system: human peripheral blood mononuclear cells (PBMCs); experiment: Cytokine release by human PBMCs incubated with commensal bacteria alone or in combination with E. faecalis (Luminex); type: cell-based; conditions: for ability to reduce/counteract the induction of pro-inflammatory cytokines by EPV 8 (incl. IL-6, MCP-1, IL-12p70, IFNγ): combination with EPV 8; for anti-inflammatory cytokine profile for a Th-1-driven condition such as GVHD: overall assessment, FIG. 11
human PBMCs = experiment: Flow cytometry of T cell populations in human PBMCs cultured with commensal bacteria; type: cell-based; conditions: compared to PBMCs alone (control); percent of CD3ε+CD4+ cells
Protocol: In order to determine whether exposure to commensal bacteria may polarize T cells toward a particular phenotype, flow cytometry analysis was performed on human PBMCs cultured with various commensal bacteria as described above. The cells recovered from culture were washed in phosphate-buffered saline and stained with a cocktail of fluorescently labeled antibodies against specific cell surface protein markers to allow for the detection of Th1 cells (CXCR3^+CCR6^−), Th2 cells (CXCR3^−CCR6^−), Th17 cells (CXCR3^+CCR6^+) and Tregs (CD25^+CD127^lo). Negative control wells contained PBMCs in culture medium alone and positive control wells contained PBMCs+LPS (100 ng/ml) as a known immune stimulus. The commensal bacteria examined inluded: Epv 1: R. gnavus; Epv 3: B. luti; Epv 2: E. rectale; Epv 5: B. wexlerae; Epv. 8: E. faecalis; Epv 20: B. obeum, ATCC 29174; Epv 21: B. product, ATCC 27340; Epv 24: B. hansenii, ATCC 27752. […] For example, the optimal T cell profile to address pro-inflammatory disorders such as GVHD would consist of ↑Treg, ↓Th17, ↓ or unchanged Th1, and ↑Th2. This phenotype was induced by many of the bacteria tested.

intestinal permeability = type: in vivo, mice
gut microbiome = experiment: Normal human volunteer study of D-xylose: changes in the gut microbiome (stool 16S sequencing); type: in vivo; conditions: for alpha diversity of the gut microbiome: over time on study
[3] = human, in vivo
Protocol: D-xylose is a carbon source generally preferred by anaerobic bacteria. […] A parallel, double-blind, 5 cohort escalation food safety study was conducted to examine D-xylose in normal human volunteers. The study was a double-blind, single-center, parallel group study designed to evaluate the tolerability and potential microbiome changes induced by ingestion of D-xylose at 5 different amounts in healthy, adult volunteers enrolled at 1 study center in the United States (US).
Subjects were screened for eligibility within 21 days prior to the first planned ingestion of study sweetener on Day 1 (Baseline). […]
Subjects returned to the study center weekly on Days 8, 15, 22, and 28 for ingestion, tolerability, and compliance evaluations. Safety was evaluated on a continual basis through adverse events (AE) monitoring, clinical laboratory measurements, vital sign monitoring, physical examinations, electrocardiograms (ECGs), telephone follow-up, and electronic subject ingestion diaries. Stool was collected pre-ingestion and at pre-specified time points, and post-ingestion samples were evaluated for changes in the gut microbiome compared with Baseline for all subjects. […]
Safety was evaluated on a continual basis through AE monitoring, clinical laboratory measurements, vital sign monitoring, physical examinations, ECGs, telephone follow-up, and electronic subject ingestion diaries. […]

[4] = Normal human volunteer study of D-xylose: serum CRP, serum cytokines and T-cell markers; type: in vivo
Excerpt: Blood was collected at pre-specified pre- and post-ingestion time points to evaluate C-reactive protein (CRP), serum cytokines (tumor necrosis factor alpha [TNF-α], interleukin [IL]-2, IL-6, interferon gamma [IFN-γ], and IL-10), and T-cell markers CD3, CD4, CD8, CD25, and FOXP3. Plasma was also stored and may be tested for biomarkers and/or metabolic markers for up to 7 years.
Summary statistics (n, mean, standard deviation, median, minimum, and maximum) were presented for serum concentrations of CRP, flow cytometry T-cell markers (CD3, CD4, CD8, CD25, and FOXP3), and cytokines (TNF-α, IL-2, IL-6, IFN-γ, and IL-10) as per their nominal time points.

[5] = in vivo; cited from earlier work
vaginal microbiome = test system: vaginal microbiome; set-up: species or system C57Bl/6 female mice; conditions: mouse, in vivo, po
Excerpt: (§1) The trillions of organisms forming the microbiome function as an organ system interconnected throughout the body. The possibility that modification of the microbiome in a given physical location may influence the microbiome at other sites in the body (distal augmentation) was investigated. Seven week old C57Bl/6 female mice were acclimatized for 7 days prior to the start of the study by daily handling and shuffling between cages. All mice were housed at three mice per cage in individually vented cages (Thoren, Hazleton, Pa.). At day 0, baseline fresh fecal pellets, and vaginal lavages with 100 μL of sterile double-distilled water were collected and immediately frozen at −80° C. for microbiome analysis. […] Water alone is not expected to influence the microbiome and acted as a negative control. […] The impact of oral vancomycin is therefore expected to be limited to the gastrointestinal tract such that microbiome changes elsewhere in the body (e.g. vagina) would be attributable to distal augmentation. […]
(§2) Isolation and sequencing of microbial DNA from the stool and vaginal samples was performed by DNA Genotek (Ottawa, ON, Canada). The V3-V4 region of the 16S ribosomal subunit was amplified with custom PCR primers and sequenced on an Illumina MiSeq to a minimum acceptable read depth of 25,000 sequences per sample. […]

microbiome of the gut = test system: microbiome of the gut; set-up: species or system C57Bl/6 female mice; conditions: mouse, in vivo
Excerpt: as §1, §2

[6] = Table 1, NIAID priority pathogen category, OP or N
[7] = bacterium alone, 24, 48 and 72 hours

In the case of Clostridium tertium, the “Pathogen Status” value [1, 6] is listed as “N”.
In the case of Blautia luti (BlnIX) [EPV 114], the “low induction of pro-inflammatory cytokines and/or positive induction of anti-inflammatory cytokines, and ability to counteract the inflammatory activity of E. faecalis (candidate criteria)” value (“low induction” for short) [2] is reported as “meeting these criteria”.
In the case of Blautia producta ATCC 27340 [EPV 21], the “proportion of T cells with a regulatory phenotype (Tregs, CD25+CD127lo)” value (from here on “proportion of T cells”) (human PBMCs) is reported as “greatest impact”.
For Eubacterium rectale [EPV 2], the “induction of monocyte, macrophage and neutrophil-related inflammatory cytokines (MCP-1, MIP1β, MIP1α, RANTES, IL-1α, IL1β, IFN-α2, IL-8)” value [2, 7] was “least inflammatory” and the “countering the effect of E. faecalis (Epv 8) on monocyte, macrophage and neutrophil-related inflammatory cytokines” value ([2]; combination with E. faecalis) was “most effective”.
For “Enterococcus faecalis [EPV 8, reference compound]”, the “Pathogen Status” value ([1]; OTU of Table 1) is given as “N”, the “induction of Th1-related cytokines (IFN-γ, IL-12p70, IL-6, IL-2, TNFα)” value [2] is given as “induced high levels” and the “proportion of T cells” value (human PBMCs) is given as “little or no increase”.
In the case of `CCN1CCN(c2cc3c(cc2F)c(=O)c(C(=O)O)cn3C2CC2)CC1` [enro, enrofloxacin, reference compound], the “serum endotoxin levels after antibiotic treatment” value (intestinal permeability; 0.25 g/L in drinking water day −7 to day −2, measured 2 days after a 5 day course (day 0)) is reported as “increase in serum endotoxin levels” and the “serum endotoxin levels over time after antibiotic treatment” value (intestinal permeability; by day 14) is reported as “return to baseline by day 14”.
With Blautia luti [EPV 3] the “intrinsic inflammatory activity (induction of pro-inflammatory cytokines) compared to EPV 8” value ([2]; bacterium alone) was “relatively low intrinsic inflammatory activity”, the “induction of Th1-related cytokines (IFN-γ, IL-12p70, IL-6, IL-2, TNFα)” value [2, 7] was “minimal induction” and the “induction of monocyte, macrophage and neutrophil-related inflammatory cytokines (MCP-1, MIP1β, MIP1α, RANTES, IL-1α, IL1β, IFN-α2, IL-8)” value [2, 7] was “least inflammatory”. The “countering the effect of E. faecalis (Epv 8) on monocyte, macrophage and neutrophil-related inflammatory cytokines” value ([2]; combination with E. faecalis) was “most effective”, the “counteracting induction of Th1-related cytokines by E. faecalis (Epv 8)” value ([2]; combination with E. faecalis, 24, 48 and 72 hours) was “most effective” and the “ability to reduce/counteract the induction of pro-inflammatory cytokines by EPV 8 (incl. IL-6, MCP-1, IL-12p70, IFNγ)” value [2] was “able to reduce the induction of pro-inflammatory cytokines”. For the same compound, the “anti-inflammatory cytokine profile for a Th-1-driven condition such as GVHD” value [2] was “significantly desirable anti-inflammatory profile; also recorded: desirable anti-inflammatory cytokine profile”.
In the case of Blautia Hansenii ATCC27752 [EPV 24], the “proportion of T cells” value (human PBMCs) is reported as “greatest impact”.
In the case of Clostridium glycolicum, the “Pathogen Status” value [1, 6] is given as “N”.
With Blautia obeum [EPV 78] the “low induction” value [2] was “meeting these criteria”.
In the case of Blautia wexlerae [EPV 5], the “induction of IL-10” value ([2]; 24, 48 and 72 hours) is reported as “most potent”, the “ability to reduce/counteract the induction of pro-inflammatory cytokines by EPV 8 (incl. IL-6, MCP-1, IL-12p70, IFNγ)” value [2] is reported as “little ability to counteract” and the “anti-inflammatory cytokine profile for a Th-1-driven condition such as GVHD” value [2] is reported as “suboptimal anti-inflammatory profile”.
In the case of Eubacterium rectale [EPV 35], the “low induction” value [2] is reported as “meeting these criteria”.
For Ruminococcus gnavus [EPV 1], the “eliciting Th2 cytokines (IL-13, IL-4, IL-5)” value ([2]; bacterium on its own, 24, 48 and 72 hours) was “most active” and the “eliciting Th2 cytokines (IL-13, IL-4, IL-5)” value ([2]; in the presence of E. faecalis, 24, 48 and 72 hours) was “most active”.
In the case of `O=C[C@H](O)[C@@H](O)[C@H](O)CO` [D-xylose], the “changes in the gut microbiome, overall” value (gut microbiome; normal individuals and normal mice) is reported as “subtle changes in the gut microbiome”, the “community composition of the gut microbiome over time” value (gut microbiome; regardless of ingestion amount) is reported as “no significant changes in community composition” and the “alpha diversity of the gut microbiome” value (gut microbiome; regardless of ingestion amount) is reported as “no apparent significant impact”. The “alpha diversity of the gut microbiome” value (gut microbiome; regardless of ingestion amount, listed as xylose) was “no major shifts in the microbiome alpha diversity”, the “Chao diversity index (community richness) over time” value (gut microbiome; xylose TID at 1, 2, 8, 12.5 or 15 grams, FIG. 31) was “overall decrease” and the “basal levels of serum endotoxin” value (intestinal permeability; mouse, in vivo) was “reduced these basal levels over time; also recorded: reduces basal levels of serum endotoxin”. For the same compound, the “effect of xylose on the increase in serum endotoxin level caused by cipro” value (intestinal permeability; mouse, in vivo) was “appeared to counteract the increase in serum endotoxin level; also recorded: counteracts the endotoxin increase”, the “effect of xylose on the increase in serum endotoxin level caused by enro” value (intestinal permeability; mouse, in vivo) was “but not enro” and the “SAEs, severe AEs, subject deaths” value [3] was “No SAEs, severe AEs, or subject deaths were reported”. The “levels of serum interferon gamma over time” value ([4]; 2 g and 15 g D-xylose cohorts, FIG. 30) was “trend for reduced levels”, the “total T-cells or any T-cell subsets over time” value ([4]; any ingestion amount) was “No consistent or clinically meaningful changes over time” and the “subjects with normal serum CRP at Baseline with at least 1 post-ingestion CRP value >2.9 mg/L” value ([4]; human, in vivo) was 8.3%. The “serum cytokines (TNF-α, IL-2, IL-6, IFN-γ, IL-10) over time” value ([4]; most data points below the limit of quantitation, any ingestion amount) was “did not indicate any consistent or clinically meaningful changes over time”.
For Clostridium sordellii, the “Pathogen Status” value [1, 6] is listed as “N”.
For `CN[C@H](CC(C)C)C(=O)N[C@H]1C(=O)N[C@@H](CC(N)=O)C(=O)N[C@H]2C(=O)N[C@H]3C(=O)N[C@H](C(=O)N[C@H](C(=O)O)c4cc(O)cc(O)c4-c4cc3ccc4O)[C@H](O)c3ccc(c(Cl)c3)Oc3cc2cc(c3O[C@@H]2O[C@H](CO)[C@@H](O)[C@H](O)[C@H]2O[C@H]2C[C@](C)(N)[C@H](O)[C@H](C)O2)Oc2ccc(cc2Cl)[C@H]1O` [Vancomycin, vancomycin], the “absorption from the gut after oral administration” value [5] is listed as “poorly absorbed from the gut”, the “day 0 to day 6 pattern in vaginal samples (PCA)” value (vaginal microbiome) is listed as “overall difference between the PBS and oral vancomycin groups” and the “impact on the microbiome of the gut (PCA at the family level, fecal samples day 0 to day 6)” value (microbiome of the gut) is listed as “strong impact”.
For Clostridium paraputrificum, the “Pathogen Status” value [1, 6] is listed as “N”.
For Bacteroides fragilis, the “Pathogen Status” value ([1]; Table 1, OTU list, NIAID priority pathogen category, OP or N) is given as “N”.
